This is an account of results in patent publication US9359371B2, “Bicyclic substituted pyrimidine compounds” (Xuanzhu Pharma Co., Ltd., priority 2012, dated 2016).

The target of data set [1] is PDE-5 enzyme (human blood platelets) (Homo sapiens (Human), UniProt O76074). Kind of data set: PDE-5 enzyme assay, [3H]cGMP. The data set is classed as biochemical.
For data set [2], the system named is length of New Zealand rabbit's penis. Kind of data set: Pharmacological activity in vivo (oral administration, 70 mg/kg, with SNP), rabbit penis length. On the set-up: species or system New Zealand rabbits. To be noted: Table 8; oral 70 mg/kg; SNP 0.2 mg/kg iv 60 min after; 0-180 min. The protocol: Experiment 7: Assay of Pharmacological Activity In Vivo (Oral Administration)
After accommodating with the environment, the New Zealand rabbits were grabbed everyday. When the rabbits were accustomed to the repeated grabbing, drug administration was began. The animals were randomly divided into groups by weight, with 6 rabbits of each group. […] The corresponding test compounds were orally administrated to animals of each group. The dosage was 70 mg/kg, and the administration volume was 1 mL/kg. SNP (0.2 mg/kg, 0.5 mL/kg) was injected into the auricular veins of rabbits 60 min after the administration of the test compounds. The length of the rabbit's penis was measured with a digital caliper before and 10, 15, 30, 50, 60, 65, 70, 75, 90, 110, 120 and 180 min after the administration. Touch of the rabbit's penis by the caliper was avoided during the measurements.

The next data set deals with hERG channel (Homo sapiens (Human), UniProt Q12809). Kind of data set: hERG potassium channel whole-cell patch clamp on CHO-K1 cell line. The source says:
Experiment 8: Detection of Inhibitory Effect of the Compounds of the Present Invention on hERG Potassium Channel by the Patch Clamp Method
Rapidly activated human delayed rectifying outward potassium current (IKr) is mainly mediated by hERG ion channel and is involved in repolarization of human cardiac muscle cell. Clinically, blocking of the current by a drug is the main cause of QT interval prolongation syndrome, acute arrhythmia and even sudden death. The main purpose of the experiment is to test the blocking effect of the compounds of the present invention on hERG channel, and to determine the half maximal inhibitory concentration (IC50) of the compounds.
The experiment mainly included: (1) recording hERG current by patch clamp technique on CHO-K1 cell line which stably expressed hERG channel; (2) calculating the Inhibition rate of each concentration according to hERG tail current; (3) testing each compound at 5 concentrations to calculate IC50; (4) testing 2 cells at each concentration; (5) a positive control.
The structures and synthesis of Compound 88 (WO-88) and Compound 93 (WO-93) as disclosed in WO200119802A were described in Example 55 and Example 56.
Drug for positive control: Amitriptyline hydrochloride (Sigma-Aldrich, an international standard blocker for hERG channel)
Pippette Solution (in mM): KCl 120, KOH 31.25, CaCl2 5.374, MgCl2 1.75, Ethylene glycol-bis(β-aminoethyl ether)-N,N,N′,N′-tetraacetic acid (EGTA) 10, HEPES 10, Na2-ATP 4, adjusted to a pH of 7.2 with 1N potassium hydroxide; adjusted to an osmotic pressure of 280-290 mOsm; preserved at −20° C. after filtration.
Preparation of compounds: Some of the compounds of the present invention and Amitriptyline hydrochloride as the positive control drug were separately dissolved in 100% DMSO (Merck, 61850125001730), then prepared into stock solutions of 30 mM. Before the experiment, the above stock solutions were diluted with DMSO to a concentration of 1000-fold of the experimental concentration. Then the diluted solutions were further diluted with extracellular solution by 1:1000 to the required experimental concentration. The final concentration of DMSO in the extracellular solution was kept as 0.1%.
Stable cell line CHO-hERG was purchased from AVIVA Company. The hERG current on the cell line was recorded. For the purpose of quality control, the smallest seal resistance was no less than 500 MΩ, and the hERG current was no less than 0.4 nA.
The hERG current was recorded by a whole-cell patch clamp technique. Cell suspension was added into a 35-mm culture dish. The culture dish was placed on the objective table of an inverted microscope. Upon cell attachment, perfusion was conducted with the extracellular solution at a flow rate of 1-2 mL/min.
Glass microelectrode with the pipette tip resistance of 2-5 MΩ was controlled by a microelectrode puller via a two-step process. After the whole-cell record was set up, the clamp potential was kept at −80 mV. The cell was depolarized to +60 mV by applying a voltage stimulus, and then repolarized to −50 mV to obtain the hERG tail current. Recordation was conducted after the current was stable. The extracellular perfusion was started from the lowest concentration, with 5-10 min for each concentration until the current was stable, and then conducted with the next concentration.
Stimulus payment and signal collection were performed by A/D-D/A conversion using Digidata 1440 (Molecular Devices) and pCLAMP software (Version 10.2, Molecular Devices). Signal amplification was performed on a patch clamp amplifier (Multiclamp 700B, Molecular Devices), with a filter of 1 KHz. Further data analysis and curve fitting were conducted by Clampfit (version 10.2, Molecular Devices) and Prism. The data were presented as mean value±standard deviation.
In the process of data analysis, the peak value and the baseline of the tail current were corrected when determining the blocking effect on hERG.
Background: hERG is a cardiac potassium channel; its block is linked to QT prolongation.

In data set [3] the target is bovine retinal PDE-6 (Bos taurus (Bovine), UniProt P11541+P23439). Kind of data set: PDE-6 enzyme assay, [3H]cGMP. It counts as biochemical. As for the experimental part: (§1) Experiment 3: Measurement of Enzyme Activity on PDE-6 Enzyme In Vitro
(§2) Source of enzyme: PDE-6, bovine retinal PDE-6
(§3) Method: The test compound or solvent was incubated at 25° C. for 15 min with enzyme solution (0.2 μg/mL) in Tris-HCl buffer of pH 7.5. 100 μM cGMP and 0.03 μM [^3H] cGMP were then added to activate the reaction. The mixture was incubated for 20 min. The reaction was stopped at 100° C. By addition of snake venom nucleotidase, the product [^3H] GMP was converted into [^3H] Guanosine, which was separated with AG1-X2 resin. The amount of [^3H] Guanosine was measured.

Data set [4] has as its system bovine retinal PDE-6. Kind of data set: PDE-6 enzyme assay, [3H]cGMP. It counts as biochemical. The protocol: as §1, §2, §3

SMILES strings stand for the structures. Where two headings read alike, the source gives them in different places.

The term IC50 denotes the concentration that inhibits the measured activity by half.

bovine retinal PDE-6 (Bos taurus (Bovine), UniProt P11541+P23439), sequence (P11541 whole entry, looked up): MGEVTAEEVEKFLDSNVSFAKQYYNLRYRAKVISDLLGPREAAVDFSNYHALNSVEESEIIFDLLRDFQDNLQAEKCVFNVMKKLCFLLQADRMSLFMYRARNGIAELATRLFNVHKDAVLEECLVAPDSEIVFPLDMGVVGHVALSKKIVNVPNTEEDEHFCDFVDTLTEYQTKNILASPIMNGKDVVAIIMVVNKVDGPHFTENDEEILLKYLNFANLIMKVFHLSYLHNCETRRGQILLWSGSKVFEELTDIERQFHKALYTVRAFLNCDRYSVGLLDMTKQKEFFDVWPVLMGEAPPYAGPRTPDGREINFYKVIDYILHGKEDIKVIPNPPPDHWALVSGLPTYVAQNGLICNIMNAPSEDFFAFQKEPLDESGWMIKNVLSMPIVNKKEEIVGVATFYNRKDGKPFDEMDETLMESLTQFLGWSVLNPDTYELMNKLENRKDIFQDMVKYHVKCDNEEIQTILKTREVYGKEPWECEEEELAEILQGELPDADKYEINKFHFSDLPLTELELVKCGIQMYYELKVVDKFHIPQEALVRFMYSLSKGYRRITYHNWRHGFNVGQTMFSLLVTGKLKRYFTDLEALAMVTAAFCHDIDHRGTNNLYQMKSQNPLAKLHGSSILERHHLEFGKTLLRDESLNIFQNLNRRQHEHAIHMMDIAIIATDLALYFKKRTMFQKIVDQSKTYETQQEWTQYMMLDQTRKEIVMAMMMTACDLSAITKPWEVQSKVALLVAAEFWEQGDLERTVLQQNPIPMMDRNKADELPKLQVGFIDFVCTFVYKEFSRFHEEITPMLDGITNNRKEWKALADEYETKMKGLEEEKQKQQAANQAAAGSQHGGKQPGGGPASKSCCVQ
bovine retinal PDE-6 (Bos taurus (Bovine), UniProt P11541+P23439), sequence (P23439 whole entry, looked up): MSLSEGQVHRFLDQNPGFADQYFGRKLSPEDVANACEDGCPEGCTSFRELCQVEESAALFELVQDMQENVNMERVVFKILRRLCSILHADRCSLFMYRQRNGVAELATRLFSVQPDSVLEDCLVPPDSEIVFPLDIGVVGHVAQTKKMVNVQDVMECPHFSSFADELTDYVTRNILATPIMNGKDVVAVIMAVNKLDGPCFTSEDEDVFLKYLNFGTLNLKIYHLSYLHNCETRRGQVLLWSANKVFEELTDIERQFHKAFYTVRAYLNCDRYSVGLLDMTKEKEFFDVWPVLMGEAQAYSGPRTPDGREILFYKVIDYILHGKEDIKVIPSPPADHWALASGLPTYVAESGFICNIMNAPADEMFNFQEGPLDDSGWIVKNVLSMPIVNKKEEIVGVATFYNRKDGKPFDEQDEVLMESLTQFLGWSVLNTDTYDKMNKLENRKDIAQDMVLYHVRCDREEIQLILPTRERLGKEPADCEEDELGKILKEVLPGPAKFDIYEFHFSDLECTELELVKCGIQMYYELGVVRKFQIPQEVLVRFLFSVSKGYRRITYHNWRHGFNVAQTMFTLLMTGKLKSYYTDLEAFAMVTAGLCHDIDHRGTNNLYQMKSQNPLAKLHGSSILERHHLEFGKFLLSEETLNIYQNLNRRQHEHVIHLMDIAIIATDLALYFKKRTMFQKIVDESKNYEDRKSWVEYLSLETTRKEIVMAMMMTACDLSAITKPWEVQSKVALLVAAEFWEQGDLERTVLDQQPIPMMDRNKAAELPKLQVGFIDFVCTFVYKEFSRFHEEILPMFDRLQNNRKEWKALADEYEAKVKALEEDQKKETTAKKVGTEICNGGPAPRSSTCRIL
hERG channel, sequence (Q12809 whole entry): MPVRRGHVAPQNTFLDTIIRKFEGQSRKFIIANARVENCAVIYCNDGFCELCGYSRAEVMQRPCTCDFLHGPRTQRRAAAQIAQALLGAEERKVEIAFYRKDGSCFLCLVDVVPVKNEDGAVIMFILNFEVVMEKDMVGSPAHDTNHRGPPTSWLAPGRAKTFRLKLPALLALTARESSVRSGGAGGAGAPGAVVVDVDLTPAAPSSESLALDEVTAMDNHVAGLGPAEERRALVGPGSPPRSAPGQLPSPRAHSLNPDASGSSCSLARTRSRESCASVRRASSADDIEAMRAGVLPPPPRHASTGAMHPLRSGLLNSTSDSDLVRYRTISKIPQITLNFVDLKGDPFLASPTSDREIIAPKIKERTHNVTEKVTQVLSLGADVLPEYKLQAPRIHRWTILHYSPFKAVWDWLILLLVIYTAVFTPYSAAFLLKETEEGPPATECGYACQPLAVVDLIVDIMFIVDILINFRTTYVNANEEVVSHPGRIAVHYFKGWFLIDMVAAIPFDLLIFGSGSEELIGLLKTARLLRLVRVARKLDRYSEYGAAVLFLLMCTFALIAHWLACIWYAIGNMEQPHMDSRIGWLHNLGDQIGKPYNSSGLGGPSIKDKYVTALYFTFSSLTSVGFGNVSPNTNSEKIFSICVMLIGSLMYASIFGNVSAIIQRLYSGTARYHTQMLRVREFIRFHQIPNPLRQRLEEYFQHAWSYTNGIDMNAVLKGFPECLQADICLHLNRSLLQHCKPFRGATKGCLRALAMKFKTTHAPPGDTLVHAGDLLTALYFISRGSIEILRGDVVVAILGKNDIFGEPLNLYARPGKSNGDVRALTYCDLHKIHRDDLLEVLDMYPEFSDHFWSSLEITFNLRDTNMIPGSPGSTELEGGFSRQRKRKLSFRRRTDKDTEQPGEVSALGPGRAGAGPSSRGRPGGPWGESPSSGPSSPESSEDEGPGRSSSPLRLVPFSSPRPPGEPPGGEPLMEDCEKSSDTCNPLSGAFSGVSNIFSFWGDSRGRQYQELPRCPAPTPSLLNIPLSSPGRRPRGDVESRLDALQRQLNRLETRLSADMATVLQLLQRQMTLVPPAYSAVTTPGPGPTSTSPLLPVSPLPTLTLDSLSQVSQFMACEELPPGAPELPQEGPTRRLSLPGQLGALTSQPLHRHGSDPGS

For the compound `COc1ccc(CNc2nc(N3CC4CC4C3)ncc2C(=O)N[C@H]2CC[C@H](O)CC2)cc1Cl` (stereo partly drawn) [Compound 11, 2-(3-azabicyclo[3.1.0]hexan-3-yl)-4-((3-chloro-4-methoxybenzyl)amino)-N-(trans-4-hydroxycyclohexyl)pyrimidine-5-formamide], the IC50 in data set [1] (Table 2-1, repetition, read-out: IC50 on PDE-5 (repetition of Example 2)) was 0.41 nM; in data set [1] (Table 2, human blood platelet enzyme, read-out: IC50 on PDE-5), 1.31 nM; in data set [1] (Table 4-1, read-out: PDE-5 (IC50 nM)), 0.41 nM; at hERG channel, above 30000 nM; on bovine retinal PDE-6 [3] (Table 3, read-out: IC50 on PDE-6) it was 61 nM; on bovine retinal PDE-6 [3] (Table 4-1, read-out: PDE-6 (IC50 nM)), 61 nM. Also, the “AUC of penis length” value in data set [2] is recorded as 540.7 mm × min. The “inhibitory effect on hERG channel (in words)” value against hERG channel (human, CHO-K1 cells stably expressing hERG channel, pH 7.4) is “none of Compound 3, 11 and 50 of the present invention had a significant inhibitory effect”. The “Selectivity (PDE-6/PDE-5)” value with bovine retinal PDE-6 [4] (IC50 for PDE-6/IC50 for PDE-5) is reported as 148. Moreover, in the data set with bovine retinal PDE-6 [4] (selectivity >70 called high), the “selectivity on PDE-5 enzyme versus PDE-6 (in words)” value was “higher selectivity on PDE-5 enzyme than to PDE-6”.
